Data as given in patent US6573243B1, “Pompilid wasp-derived neuropeptides” (Suntory Limited, priority 1997, dated 2003).

Tested on: nerve-muscle junction of a lobster's walking leg
Assay: Effect on excitatory postsynaptic potential (EPSP) in the neuromuscular specimen of a lobster's walking leg
Details: for concentration at which the peptide enhanced EPSP: sample dissolved in artificial seawater on the nerve-muscle junction side, excitatory nerve electrically stimulated; for biological activity of the synthetic peptide compared with the natural peptide: synthetic vs natural peptide
Method: The biological activity of the present peptides can be assayed according to the methods described in Japanese Patent Laid-Open No. 4-198161, in which excitatory postsynaptic potential (EPSP) is generated in the neuromuscular specimen of a lobster's walking leg, and the effect of the compound given to the nerve fibers on the EPSP is determined.
In general, substances inhibiting EPSP are believed to be glutamate antagonists or inhibitors for the release of glutamic acid, and the substances enhancing EPSP are believed to be glutamate-like agonists or accelerators for the release of glutamic acid.
The effect of the present peptides on excitatory postsynaptic potential (EPSP) was measured according to the method disclosed in Japanese Patent Laid-Open No. 4-198161. Thus, the shell of a lobster's walking leg was removed to expose the excitatory nerve and the inhibitory nerve, and a stimulating electrode was attached thereto. Then the nerve-muscle junction was exposed, and a recording electrode was attached thereto. The walking leg equipped with the electrodes was transferred to a container filled with an artificial seawater, and a partition was set up between the stimulating electrode part and the recording electrode part. The samples to be measured were dissolved into the artificial seawater in the recording electrode side (i.e., the side containing the nerve-muscle junction). Subsequently, the excitatory nerve was electrically stimulated and the EPSP, which was induced by glutamic acid released from the nerve end in response to the stimulation, was recorded.

| Substance | concentration at which the peptide enhanced EPSP [nM] | biological activity of the synthetic peptide compared with the natural peptide |
| --- | --- | --- |
| H-Arg-Ile-Lys-Ile-Gly-Leu-Phe-Asp-Gln-Leu-Ser-Arg-Leu-NH2 (H-RIKIGLFDQLSRL-NH2) [peptide (97)] | 200 | same biological activity as the natural peptides |
| H-Arg-Ile-Lys-Ile-Gly-Leu-Phe-Asp-Gln-Leu-Ser-Lys-Leu-NH2 (H-RIKIGLFDQLSKL-NH2) [peptide (1)] | 1000 | same biological activity as the natural peptides |
